{"source": "patent US10808008B2", "about": "“Aromatic-cationic peptides and uses of same” (Cornell University, priority 2012, dated 2020)", "key": {"[1]": {"experiment": "Fluorescence spectroscopy of labelled peptides with cardiolipin", "format": "binding", "excerpt": "The peptides 2′,6′-Dmt-D-Arg-[…] (SS-19) and 2′,6′-Dmt-D-Arg-Phe-Lys-Ald-NH2 (SS-37) cationic peptides carry net positive charge at neutral pH. They are expected to associate with anionic phospholipid cardiolipin based on electrostatic interaction. The interaction of small peptides with lipid membranes can been studied using fluorescence spectroscopy (Surewicz and Epand, 1984). […] Polarity-sensitive fluorescent probes were incorporated into the peptides and fluorescence spectroscopy was used to determine if SS-19, SS-37 and SS-36 interact with CL.\nThe peptide 2′,6′-Dmt-D-Arg-Phe-(atn)Dap-NH2 (SS-19) contains anthraniloyl incorporated into diaminopropionic acid. Anthraniloyl derivatives fluoresce in the 410-420 nm range when excited at 320-330 nm (Hiratsuka T, 1983). The quantum yield of anthraniloyl derivatives is strongly dependent on the local environment, and can increase 5-fold going from water to 80% ethanol, together with a blue shift in the emission maxima (λ max) of <10 nm (Hiratsuka T, 1983). Fluorescence emission spectrum of SS-19 (1 μM) alone, and in the presence of increasing concentrations of CL (5 to 50 μg/ml), was monitored following excitation at 320 nm using Hitachi F-4500 fluorescence spectrophotometer.\nThe peptide 2′,6′-Dmt-D-Arg-Phe-Lys-Ald-NH2 (SS-37) contains an additional amino acid, aladan (Ald), which has been reported to be particularly sensitive to the polarity of its environment and it has been used to probe the electrostatic character of proteins (Cohen et al., 2002). When excited at 350 nm, λmax shifts from 542 nm in water to 409 nm in heptane, accompanied by a significant increase in quantal yield (Cohen et al., 2001). Fluorescence emission spectrum of SS-37 (1 μM) alone, and in the presence of increasing concentrations of CL, was monitored following excitation at 350 nm. Addition of CL (5 to 50 μg/ml) led to a 3-fold increase in quantal yield of SS-37 as well as a clear blue shift in λ max, from 525 nm without CL to 500 nm with 50 μg/ml CL (FIG. 11B).\nThe peptide 2′,6′-Dmt-D-Arg-Ald-Lys-NH2 (SS-36) contains Ald in place Phe^3 in SS-02. Fluorescence emission spectrum of SS-36 (1 μM) alone, and in the presence of increasing concentrations of CL, was monitored following excitation at 350 nm. SS-36 was the most sensitive to the addition of CL, with dramatic increase in quantal yield and blue shift observed with much lower added amounts of CL (1.25 to 5 μg/ml). The λmax shifted from 525 nm without CL to 500 nm with as little as 1.25 μg/ml CL, and quantal yield increased by more than 100-fold with the addition of 5 μg/ml of CL (FIG. 11C). […] Accordingly, aromatic-cationic peptides of the present disclosure are useful for the prevention or treatment of diseases or disorders characterized by dysregulation of cardiolipin.\n(§1) Changes in the emission intensity of the [atn]SS-02 and the [ald]SS-02 were measured using a Hitachi F-4500 fluorescence spectrophotometer. The different solvents used to dissolve the various phospholipids (chloroform, methanol and ethanol) had negligible effect on the fluorescence spectrum of [atn]SS-02 and [ald]SS-02. All experiments were done in low ionic solution (deionized water) to optimize electrostatic interactions of peptides with phospholipids.\nIncreasing concentrations of cardiolipin (5, 10, 25, and 50 μg/mL) were added to 1 μM [atn]SS-02, and the emission intensity between 350 nm and 500 nm was measured."}, "[2]": {"experiment": "Fluorescence spectroscopy of labelled peptide with other phospholipids", "format": "binding", "conditions": "1 μM peptide", "description": "1-palmitoyl-2-oleoyl-sn-glycero-3-phosphocholine (POPC), 1-palmitoyl-2-oleoyl-sn-glycero-3-phosphate (POPA), 1-palmitoyl-2-oleoyl-sn-glycero-3-phospho-L-serine (POPS), 1-palmitoyl-2-oleoyl-sn-glycero-3-phosphoethanolamine (PE), and 1,2-dipalmitoyl-sn-glycero-3-phospho-(1′-rac-glycerol) (DPPG) were obtained from Avanti Polar Lipids Inc (Alabaster, Ala.).\nas §1"}, "[3]": {"molecular_target": "T1, cytochrome c and cardiolipin (CL) (Equus caballus, UniProt P00004)", "T1 construct": "from tissue; host or cells: horse heart", "T1 sequence (P00004 2-105 limits assumed)": "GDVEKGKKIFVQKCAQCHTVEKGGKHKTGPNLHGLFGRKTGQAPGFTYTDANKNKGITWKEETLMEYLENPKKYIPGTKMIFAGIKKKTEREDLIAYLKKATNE", "experiment": "Fluorescence quenching by cytochrome c in the presence of cardiolipin", "format": "binding, horse", "description": "Fluorescence emission of SS-19 (10 μM) was monitored in real time (Ex/Em=320 nm/420 nm) using Hitachi F-4500 fluorescence spectrophotometer. […] CL may potentiate the interaction between SS-19 and cytochrome c by serving as an anionic platform for the two cationic molecules.\nThe quenching by cytochrome c was not displaced by sequential additions of bovine serum albumin (500 μg/ml) (FIG. 13C, A+arrows).\nSS-36 also contains the polarity-sensitive fluorescent amino acid aladan. […] Accordingly, aromatic-cationic peptides of the present disclosure are useful for the prevention or treatment of diseases or disorders characterized by dysregulation of cardiolipin and/or cytochrome c, and/or diseases or disorders characterized by dysregulation of the cardiolipin/cytochrome c interaction.\n(§2) Interaction of SS peptides with horse heart cytochrome c in the absence or presence of free cardiolipin or cardiolipin/POPC (1:1) liposomes (prepared as described in Example 22) was examined by fluorescence quenching of [atn]SS-02 (λex/λem=320/420 nm) and [ald]SS-02 (λex/λem=360/510 nm) upon addition of cytochrome c (using a Hitachi F-4500 fluorescence spectrophotometer). The solvents used to dissolve cardiolipin and POPC had negligible effect on cytochrome c-dependent quenching of these peptides. All experiments were done in low ionic solution (deionized water) or 20 mM Hepes pH 7.4."}, "[4]": {"molecular_target": "cytochrome c (Equus caballus, UniProt P00004)", "sequence (P00004 2-105 limits assumed)": "as above", "experiment": "Fluorescence quenching of labelled peptides by cytochrome c", "format": "binding, horse", "parameters": "from tissue; host or cells: horse heart", "conditions": "for change in λmax on quenching by cytochrome c / quenching of fluorescence by cytochrome c: Example 22; for quenching of fluorescence by cytochrome c: additions of cytochrome c (2 μM)", "description": "Maximal fluorescence emission of SS-19 was monitored at 420 nm following excitation at 320 nm using Hitachi F-4500 fluorescence spectrophotometer.\nThe quenching by cytochrome c was not displaced by sequential additions of bovine serum albumin (FIG. 12C, A+arrows) (500 μg/ml). […] Accordingly, aromatic-cationic peptides of the present disclosure are useful for the prevention or treatment of diseases or disorders characterized by dysregulation of cytochrome c.\nFluorescence emission of SS-19 (10 μM) was monitored in real time (Ex/Em=320 nm/420 nm) using Hitachi F-4500 fluorescence spectrophotometer.\nas §2"}}, "note": "Entries after “also recorded” stand apart in the source; their conditions may differ."}
{"substance": "2′,6′-Dmt-D-Arg-Ald-Lys-NH2 [SS-36]", "values": [{"measurement": "increase in quantal yield on addition of CL", "setting": "[1]; 1 μM peptide, 5 μg/ml CL, excitation 350 nm", "value": "more than 100 fold"}, {"measurement": "affinity compared among POPS, POPA, DPPG and cardiolipin", "setting": "[1]; 1 μM peptide, 10 μg/mL phospholipid", "value": "Cardiolipin shows the highest affinity"}, {"measurement": "peptide fluorescence on addition of CL", "setting": "[1]; CL 2.5 μg/ml", "value": "increase in SS-36 fluorescence"}, {"measurement": "interaction with POPC, POPE and neutral cholesterol", "setting": "[2]", "value": "No interaction"}, {"measurement": "emission maximum with cardiolipin after addition of cytochrome c", "setting": "[3]", "value": 450, "unit": "nm"}, {"measurement": "emission maximum with cardiolipin before addition of cytochrome c", "setting": "[3]", "value": 510, "unit": "nm"}, {"measurement": "quenching of fluorescence by cytochrome c in the presence of CL", "setting": "[3]; CL 2.5 μg/ml, cytochrome c 2 μM", "value": "dramatic quenching"}, {"measurement": "change in λmax on quenching by cytochrome c", "setting": "[4]", "value": "no change in λmax"}, {"measurement": "quenching of fluorescence by cytochrome c", "setting": "[4]", "value": "concentration-dependent quenching"}]}
{"substance": "2′,6′-Dmt-D-Arg-Phe-(atn)Dap-NH2 [SS-19]", "values": [{"measurement": "shift in λmax on addition of CL", "setting": "[1]; 1 μM peptide, CL 5-50 μg/ml, excitation 320 nm", "value": "no significant shift in λmax"}, {"measurement": "increase in quantal yield on addition of CL", "setting": "[1]; 1 μM peptide, CL 5 to 50 μg/ml", "value": 2, "unit": "fold"}, {"measurement": "emission intensity on addition of cardiolipin", "setting": "[1]; 1 μM peptide, deionized water (Example 21)", "value": "increased the emission intensity of [atn]SS-02 in a concentration-dependent manner"}, {"measurement": "peptide fluorescence on addition of CL", "setting": "[1]; 10 μM peptide, CL 50 μg/ml, Ex/Em 320/420 nm", "value": "increase in SS-19 fluorescence"}, {"measurement": "quenching of the fluorescent signal", "setting": "[3]; 2 μM cytochrome c, 1 μM peptide, 10 μg/mL cardiolipin, 420 nm", "value": "~50", "unit": "%"}, {"measurement": "extent of quenching by cytochrome c with CL compared to without CL", "setting": "[3]; 10 μM peptide, CL 50 μg/ml, cytochrome c 2 μM", "value": "larger extent of quenching"}, {"measurement": "effect of cardiolipin on interaction between cytochrome c and peptide", "setting": "[3]; free cardiolipin or cardiolipin liposomes", "value": "potentiated by either free cardiolipin or cardiolipin liposomes in a dose-dependent manner"}, {"measurement": "dependence of interaction on amount of cytochrome c", "setting": "[4]", "value": "linearly dependent on the amount of cytochrome c added"}, {"measurement": "quenching of the fluorescent signal", "setting": "[4]; 2 μM cytochrome c, 1 μM peptide, absence of cardiolipin, 420 nm", "value": "~20", "unit": "%"}, {"measurement": "quenching of peptide fluorescence by cytochrome c", "setting": "[4]; 10 μM peptide, 2 μM cytochrome c, Ex/Em 320/420 nm", "value": "similarly quenched by sequential addition of 2 μM cytochrome c; also recorded: immediate quenching of the fluorescence signal"}, {"measurement": "displacement of cytochrome c quenching by bovine serum albumin", "setting": "[4]; BSA 500 μg/ml", "value": "not displaced"}, {"measurement": "change in λmax on quenching by cytochrome c", "setting": "[4]", "value": "no change in λmax"}, {"measurement": "quenching of fluorescence by cytochrome c", "setting": "[4]", "value": "concentration-dependent quenching"}]}
